The source of these data is patent US20170165253A1, “TREATMENT OF SEXUAL DYSFUNCTION AND FOR IMPROVED SEXUAL QUALITY OF LIFE” (ReJoy, priority 2015, published 2017).

Where a name gives a salt, the structure may show the parent alone. Some results are limits rather than exact numbers.

For assay [1], the system named is areola. In words: Dose study of nipple erection and sensitivity, topical oxymetazoline (Example 7). To be noted: 0.5% topical solution. The assay is classed as in vivo, human. Here is the method: Oxymetazoline HCl 0.1%, 0.2%, 0.5%. A study was conducted to assess the dosage of topical oxymetazoline solution required to elicit nipple erection and sensitivity. Five premenopausal subjects participated in the study. Subjects were not hypertensive, pregnant or breastfeeding. Three formulations were used: Formula A: 0.1% topical oxymetazoline hydrochloride solution; Formula B: 0.2% topical oxymetazoline hydrochloride solution; Formula C: 0.5% topical oxymetazoline hydrochloride solution.
The study was conducted over 3 days. On day 1, subjects were instructed to apply Formula A to both areolas. On day 2, subjects were instructed to apply Formula B to both areolas. On day 3, subjects were instructed to apply Formula C to both areolas. 0.1 mL of each formula was applied using a metered dosage dispenser to each areola. […] With the 0.5% topical oxymetazoline solution, response in nipple erection and sensitivity was obtained approximately within 1 hour and lasted over 8 hours.

In assay [2] the test system is NAC. In words: Acetylcholine receptor agonists: nipple erection and sensitivity (Example 13). It counts as in vivo, human. To be noted: single topical dose to one NAC, one subject per agent; for Onset Time: 0.4-12.5 mg/cm^2. How it is done:
A study was conducted to assess the effectiveness of different acetylcholine receptor agonists on eliciting nipple erection and increasing nipple sensitivity in normal women aged 18-65. Ten subjects were recruited. Each subject was randomly assigned a single agonist. Each subject self-administered a single dose of the agonist to one NAC that was self-reported as the least sensitive (or if no differential sensitivity, then the left NAC). The agonists were applied in topical solutions to the NAC. The subject was supervised by a medical professional. Blood pressure and heart rate were monitored at baseline, 5 minutes, 10 minutes, and 30 minutes. […] Subjects were asked to report if they experienced nipple erection and sensitivity in less than 10 minutes and if the effect lasted more or less than 10 minutes. The subjects all responded to the agonists. The effect was short-lived; however, sensitivity is some of the subjects was reported up 60 minutes later.

Consider `Cc1cc(C(C)(C)C)c(O)c(C)c1CC1=NCCN1` [oxymetazoline, oxymetazoline hydrochloride], for which, in assay [1], the duration of response entry is recorded as “over 8 hours”; the “time to response in nipple erection and sensitivity” value is not above 1 h.
On to `CN1[C@@H](CC(=O)c2ccccc2)CCC[C@H]1C[C@H](O)c1ccccc1` [Alpha-Lobeline], for which, in assay [2], the “Nipple Erection (Yes/No)” value was “Yes”, the “Nipple Sensitivity (Yes/No)” value was “Yes”, the “Nipple Sensitivity Effect Duration” value is given as less than 10 min and the “Onset Time” value is given as less than 10 min.
As to `CC(C[N+](C)(C)C)OC(N)=O` (stereo not shown) [Bethanechol], in assay [2], the “Nipple Erection (Yes/No)” value is given as “Yes”, the “Nipple Sensitivity (Yes/No)” value is recorded as “Yes”, the “Nipple Sensitivity Effect Duration” value was less than 10 min and the “Onset Time” value is less than 10 min.
As for `CC(=O)OC(C)C[N+](C)(C)C` (stereo not shown) [Methacholine], in assay [2], the “Nipple Erection (Yes/No)” value is given as “Yes”, the “Nipple Sensitivity (Yes/No)” value was “Yes”, the “Nipple Sensitivity Effect Duration” value was less than 10 min and the “Onset Time” value is listed as less than 10 min.
`CC[C@@H]1C(=O)OC[C@@H]1Cc1cncn1C` [Pilocarpine]: in assay [2], the “Nipple Erection (Yes/No)” value was “Yes”, the “Nipple Sensitivity (Yes/No)” value was “Yes”, the “Nipple Sensitivity Effect Duration” value was less than 5 min and the “Onset Time” value is listed as less than 10 min.
Take `CN1CCCC1c1cccnc1` (stereo not shown) [Nicotine]: in assay [2], the “Nipple Erection (Yes/No)” value is reported as “Yes”, the “Nipple Sensitivity (Yes/No)” value is “Yes”, the “Nipple Sensitivity Effect Duration” value was less than 10 min and the “Onset Time” value is less than 10 min.
`C[N+](C)(C)CCOC(N)=O` [Carbachol]: in assay [2], the “Nipple Erection (Yes/No)” value is listed as “Yes”, the “Nipple Sensitivity (Yes/No)” value was “Yes”, the “Nipple Sensitivity Effect Duration” value is listed as less than 10 min and the “Onset Time” value is less than 10 min.
Consider `CC(=O)OCC[N+](C)(C)C` [Acetylcholine], for which, in assay [2], the “Nipple Sensitivity Effect Duration” value is less than 5 min and the “Onset Time” value is reported as less than 10 min.
Take `CCN(CC)CCNC(=O)c1cc(Cl)c(N)cc1OC` [Metaclopramide]: in assay [2], the “Nipple Erection (Yes/No)” value is listed as “Yes”, the “Nipple Sensitivity (Yes/No)” value is on record as “Yes”, the “Nipple Sensitivity Effect Duration” value is recorded as less than 10 min and the “Onset Time” value is less than 10 min.
In the case of `CC1OC2(CS1)CN1CCC2CC1` (stereo not shown) [Cevimeline], in assay [2], the “Nipple Erection (Yes/No)” value is on record as “Yes”, the “Nipple Sensitivity (Yes/No)” value is “Yes”, the “Nipple Sensitivity Effect Duration” value is reported as less than 10 min and the “Onset Time” value is given as less than 10 min.
As for `CC(=O)OC(C)C[N+](C)(C)C.[Cl-]` (stereo not shown) [Mecholyl], in assay [2], the “Nipple Erection (Yes/No)” value is on record as “Yes”, the “Nipple Sensitivity (Yes/No)” value was “Yes”, the “Nipple Sensitivity Effect Duration” value is less than 10 min and the “Onset Time” value was less than 10 min.
